From patent US7893288B2, “Poly-halogenated triazapentadiene compositions” (Board of Regents, The University of Texas System, priority 2007, dated 2011)
Values joined by “and” are separate entries in the source; they are usually repeats but may differ in a detail not shown here. Identical values can stand only once. Marks after values point to notes of the source that are not given here.

Legend:
Assay type in all cases: cell-based
[1] = test system: Staphylococcus aureus (ATCC 25923); test: Disk sensitivity test (modified Kirby-Bauer), S. aureus;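 note: Compound-loaded filter disks on LB agar plates seeded with a confluent bacterial lawn, compound dissolved in DMSO, plates kept overnight at 37 °C, then inhibition zone around disk measured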
Procedure: (§1) Filter disks were provided as sterile filter paper (about 6 mm in diameter) and spotted with 20 μL of a selected compound. Each compound was initially dissolved in dimethylsulfoxide (DMSO); any subsequent dilutions were also made in DMSO. Each filter was placed on an LB agar plate spread with 100 μL of a bacterial culture that had been grown overnight in suitable LB broth. Plates were incubated overnight at 37° C., after which, the extent of growth inhibition around each filter disk was measured. Bacterial strains included Staphylococcus aureus (ATCC 25923), Pseudomonas aeruginosa PAO1, Bacillus subtilis W168 and Escherichia coli HB101. […] The latter two strains are non-pathogenic Gram-positive and Gram-negative bacterial strains, respectively.

Bacillus subtilis W168 [2] = test: Disk sensitivity test (modified Kirby-Bauer), B. subtilis;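 note: Compound-loaded filter disks on LB agar plates seeded with a bacterial lawn, plates held overnight at 37 °C, then the clear zone around each disk measured, compounds in DMSO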
Procedure: as §1

[3] = test system: Pseudomonas aeruginosa PAO1; test: Disk sensitivity test (modified Kirby-Bauer), P. aeruginosa;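 note: Compound-loaded filter disks on LB agar lawns, DMSO as solvent, zone of inhibition around each disk read after overnight incubation at 37 °C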
Escherichia coli HB101 [4] = test: Disk sensitivity test (modified Kirby-Bauer), E. coli;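 note: filter disk loaded with compound in DMSO laid on an LB agar bacterial lawn, kept overnight at 37 °C, then the inhibition zone around the disk is measured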
[5] = test system: Staphylococcus aureus (ATCC 25923); test: Minimum inhibitory concentration in LB broth, S. aureus; settings: for Relative to AgNO3: efficacy per mole from MIC values
Bacillus subtilis W168 [6] = test: Minimum inhibitory concentration in LB broth, B. subtilis; settings: for Relative to AgNO3: efficacy per mole from MIC values
[7] = test system: Pseudomonas aeruginosa PAO1; test: Minimum inhibitory concentration in LB broth, P. aeruginosa; settings: for Relative to AgNO3: efficacy per mole from MIC values
Escherichia coli HB101 [8] = test: Minimum inhibitory concentration in LB broth, E. coli; settings: for Relative to AgNO3: efficacy per mole from MIC values;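 for all read-outs here: broth dilution MIC, test compounds first taken up in DMSO, then serially diluted in LB medium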
[9] = test system: Gram positive and Gram negative bacteria; test: Antimicrobial activity, summary of TABLES 16-18
Procedure: The new class of fluorinated triazapentadiene compounds with and without metal complexation as described herein were analyzed for antibacterial activity against several bacterial strains (both Gram positive and Gram negative). Methods for antimicrobial analysis included a modified Kirby-Bauer method and a determination of their minimum inhibitory concentrations. In brief, the modified Kirby-Bauer method relied on placement of a filter disk impregnated with a desired compound on a solid growth medium. Bacteria were grown to a confluent lawn and the extent of growth inhibition was measured (e.g., as an extent/percentage of a clear zone on the disk and/or solid medium).
For MIC assessment, compounds were initially dissolved in DMSO and serial dilutions of soluble compounds were made in LB broth.

Fc1cccc(C(F)(F)F)c1N=C(N=C([N]([Ag])c1c(F)cccc1C(F)(F)F)C(F)(F)C(F)(F)C(F)(F)F)C(F)(F)C(F)(F)C(F)(F)F [[N{(C3F7)C(2-F,6-CF3C6H3)N}2]Ag]
Diameter of the zone of growth inhibition ([1]; 5.7 × 10^0 mM): 14.0 mm | Diameter of the zone of growth inhibition ([1]; 5.7 × 10^1 mM): 19.0 mm | Diameter of the zone of growth inhibition ([1]; 5.7 × 10^−1 mM): 9.5 mm | Diameter of the zone of growth inhibition ([1]; 5.7 × 10^−2 mM): 9.0 mm | Diameter of the zone of growth inhibition ([1]; 5.7 × 10^−3 mM): 7.5 mm | Diameter of the zone of growth inhibition ([1]; 5.7 × 10^−4 mM): 6.0 (NZ) mm | Diameter of the zone of growth inhibition ([1]; 5.7 × 10^−5 mM): 6.0 (NZ) mm | Diameter of the zone of growth inhibition ([1]; 5.7 × 10^−6 mM): 6.0 (NZ) mm | Diameter of the zone of growth inhibition ([1]; 5.7 × 10^−7 mM): 6.0 (NZ) mm | Diameter of the zone of growth inhibition (Bacillus subtilis W168 [2]; 5.7 × 10^0 mM): 131.0 mm | Diameter of the zone of growth inhibition (Bacillus subtilis W168 [2]; 5.7 × 10^1 mM): 115.0 mm | Diameter of the zone of growth inhibition (Bacillus subtilis W168 [2]; 5.7 × 10^−1 mM): 78.0 mm | Diameter of the zone of growth inhibition (Bacillus subtilis W168 [2]; 5.7 × 10^−2 mM): 39.0 mm | Diameter of the zone of growth inhibition (Bacillus subtilis W168 [2]; 5.7 × 10^−3 mM): 10.0 mm | Diameter of the zone of growth inhibition (Bacillus subtilis W168 [2]; 5.7 × 10^−4 mM): 10.0 mm | Diameter of the zone of growth inhibition (Bacillus subtilis W168 [2]; 5.7 × 10^−5 mM): 9.0 mm | Diameter of the zone of growth inhibition (Bacillus subtilis W168 [2]; 5.7 × 10^−6 mM): 9.0 mm | Diameter of the zone of growth inhibition (Bacillus subtilis W168 [2]; 5.7 × 10^−7 mM): 7.5 mm | Diameter of the zone of growth inhibition ([3]; 5.7 × 10^0 mM): 15.0 mm | Diameter of the zone of growth inhibition ([3]; 5.7 × 10^1 mM): 23.5 mm | Diameter of the zone of growth inhibition ([3]; 5.7 × 10^−1 mM): 9.0 mm | Diameter of the zone of growth inhibition ([3]; 5.7 × 10^−2 mM): 6.0 (NZ) mm | Diameter of the zone of growth inhibition ([3]; 5.7 × 10^−3 mM): 6.0 (NZ) mm | Diameter of the zone of growth inhibition (Escherichia coli HB101 [4]; 5.7 × 10^0 mM): 12.5 mm | Diameter of the zone of growth inhibition (Escherichia coli HB101 [4]; 5.7 × 10^1 mM): 22.0 mm | Diameter of the zone of growth inhibition (Escherichia coli HB101 [4]; 5.7 × 10^−1 mM): 10.0 mm | Diameter of the zone of growth inhibition (Escherichia coli HB101 [4]; 5.7 × 10^−2 mM): 9.0 mm | Diameter of the zone of growth inhibition (Escherichia coli HB101 [4]; 5.7 × 10^−3 mM): 8.0 mm | MIC [5]: 8.78 × 10^−1 μg/ml and 1.05 × 10^−3 mM | Relative to AgNO3 [5]: 70.10 | MIC (Bacillus subtilis W168 [6]): 8.70 × 10^−2 μg/ml and 1.04 × 10^−4 mM | Relative to AgNO3 (Bacillus subtilis W168 [6]): 1413.46 | MIC [7]: 17.56 μg/ml and 2.1 × 10^−2 mM | sensitivity of the bacteria to the compound (in words) [7]: most sensitive | Relative to AgNO3 [7]: 8.76 × 10^−1 | MIC (Escherichia coli HB101 [8]): 8.78 μg/ml and 1.00 × 10^−2 mM | sensitivity of the bacteria to the compound (in words) (Escherichia coli HB101 [8]): most sensitive | Relative to AgNO3 (Escherichia coli HB101 [8]): 5.89 | antimicrobial activity (in words) [9]: Effective

Fc1c(F)c(F)c(N=C(N=C([N]([Ag])c2c(F)c(F)c(F)c(F)c2F)C(F)(F)C(F)(F)C(F)(F)F)C(F)(F)C(F)(F)C(F)(F)F)c(F)c1F [[N{(C3F7)C(C6F5)N}2]Ag]
Diameter of the zone of growth inhibition ([1]; 5.7 × 10^0 mM): 33.0 mm | Diameter of the zone of growth inhibition ([1]; 5.7 × 10^1 mM): 70.0 mm | Diameter of the zone of growth inhibition ([1]; 5.7 × 10^−1 mM): 39.0 mm | Diameter of the zone of growth inhibition ([1]; 5.7 × 10^−2 mM): 21.5 mm | Diameter of the zone of growth inhibition ([1]; 5.7 × 10^−3 mM): 10.0 mm | Diameter of the zone of growth inhibition ([1]; 5.7 × 10^−4 mM): 6.0 (NZ)^b mm | Diameter of the zone of growth inhibition ([1]; 5.7 × 10^−5 mM): 6.0 (NZ) mm | Diameter of the zone of growth inhibition ([1]; 5.7 × 10^−6 mM): 6.0 (NZ) mm | Diameter of the zone of growth inhibition (Bacillus subtilis W168 [2]; 5.7 × 10^0 mM): 37.0 mm | Diameter of the zone of growth inhibition (Bacillus subtilis W168 [2]; 5.7 × 10^1 mM): 47.0 mm | Diameter of the zone of growth inhibition (Bacillus subtilis W168 [2]; 5.7 × 10^−1 mM): 38.0 mm | Diameter of the zone of growth inhibition (Bacillus subtilis W168 [2]; 5.7 × 10^−2 mM): 22.0 mm | Diameter of the zone of growth inhibition (Bacillus subtilis W168 [2]; 5.7 × 10^−3 mM): 11.0 mm | Diameter of the zone of growth inhibition (Bacillus subtilis W168 [2]; 5.7 × 10^−4 mM): 7.5 mm | Diameter of the zone of growth inhibition (Bacillus subtilis W168 [2]; 5.7 × 10^−5 mM): 6.0 (NZ) mm | Diameter of the zone of growth inhibition (Bacillus subtilis W168 [2]; 5.7 × 10^−6 mM): 6.0 (NZ) mm | Diameter of the zone of growth inhibition ([3]; 5.7 × 10^0 mM): 16.5 mm | Diameter of the zone of growth inhibition ([3]; 5.7 × 10^1 mM): 27.0 mm | Diameter of the zone of growth inhibition ([3]; 5.7 × 10^−1 mM): 12.0 mm | Diameter of the zone of growth inhibition ([3]; 5.7 × 10^−2 mM): 8.0 mm | Diameter of the zone of growth inhibition ([3]; 5.7 × 10^−3 mM): 7.5 mm | Diameter of the zone of growth inhibition ([3]; 5.7 × 10^−4 mM): 6.0 (NZ) mm | Diameter of the zone of growth inhibition ([3]; 5.7 × 10^−5 mM): 6.0 (NZ) mm | Diameter of the zone of growth inhibition ([3]; 5.7 × 10^−6 mM): 6.0 (NZ) mm | Diameter of the zone of growth inhibition (Escherichia coli HB101 [4]; 5.7 × 10^0 mM): 14.0 mm | Diameter of the zone of growth inhibition (Escherichia coli HB101 [4]; 5.7 × 10^1 mM): 18.0 mm | Diameter of the zone of growth inhibition (Escherichia coli HB101 [4]; 5.7 × 10^−1 mM): 11.0 mm | Diameter of the zone of growth inhibition (Escherichia coli HB101 [4]; 5.7 × 10^−2 mM): 8.5 mm | Diameter of the zone of growth inhibition (Escherichia coli HB101 [4]; 5.7 × 10^−3 mM): 8.0 mm | Diameter of the zone of growth inhibition (Escherichia coli HB101 [4]; 5.7 × 10^−4 mM): 6.0 (NZ) mm | Diameter of the zone of growth inhibition (Escherichia coli HB101 [4]; 5.7 × 10^−5 mM): 6.0 (NZ) mm | Diameter of the zone of growth inhibition (Escherichia coli HB101 [4]; 5.7 × 10^−6 mM): 6.0 (NZ) mm | MIC [5]: 1.80 μg/ml and 2.13 × 10^−3 mM | Relative to AgNO3 [5]: 34.45 | MIC (Bacillus subtilis W168 [6]): 1.80 μg/ml and 2.13 × 10^−3 mM | Relative to AgNO3 (Bacillus subtilis W168 [6]): 69.01 | MIC [7]: 23.69 μg/ml and 2.80 × 10^−2 mM | sensitivity of the bacteria to the compound (in words) [7]: most sensitive | Relative to AgNO3 [7]: 6.57 × 10^−1 | MIC (Escherichia coli HB101 [8]): 23.69 μg/ml and 2.80 × 10^−2 mM | sensitivity of the bacteria to the compound (in words) (Escherichia coli HB101 [8]): most sensitive | Relative to AgNO3 (Escherichia coli HB101 [8]): 2.10 | antimicrobial activity (in words) [9]: Effective
